A short description of series [1]: Hygroscopicity / water sorption of crystalline hydrates versus relative humidity. The format is physicochemical.
Series [2] can be described thus: Compound exposure in wild-type mice (brain and blood levels). The format is in vivo, C57BL/6J male mice. The conditions noted are these: male, C57BL/6J, mouse, brain (cerebellum) / blood, intraperitoneal, Table 10 comparative examples; read-out: Brain:blood ratio. Here is the method:
Compound administration and brain tissue collection. Wild-type C57BL/6J male mice were obtained from Jackson laboratories (Bar Harbor, ME). The acute, single-dose effects of CaV1.2 activators of the present disclosure were evaluated in male eight-week old mice (n=6 mice per compound). Each compound was dissolved in 10% PEG300, 10% Solutol, 10% Cremophore EL, and 70% Phosphate Buffered Saline and administered intraperitoneal (i.p.) at a concentration of 1 mg/kg up to 30 mg/kg depending on the compound. Animals were euthanized one hour after compound administration via exsanguination under deep anesthesia. Blood was collected in EDTA tubes for downstream analysis of drug levels. Brains were rapidly removed from the skull, and the cerebral cortex and cerebellum were regionally dissected. Cerebellar samples were snap frozen in liquid nitrogen to assess compound exposure. Cortical samples for cFos assessment were placed in 500 μl of RNAlater solution (ThermoFisher) to preserve the integrity of RNA in the sample. Samples remained in RNAlater for at least 24 hours at 4° C. before moving to −80° C. for storage before processing.
Quantification of compound exposure. Cerebellar tissue samples were homogenized in 4 ml of 20% acetonitrile and 80% Phosphate buffered saline for every 1 g of tissue (5× dilution). Tissue was homogenized using either of the following three methods: hand held probe system, TissueLyser system with 5 mm steel bead at a frequency of 30 s^−1 for 4 min, or OMNI Bead Ruptor Elite homogenizer for 30 seconds to 1 minute depending on tissue type. Tissue samples were added to a 96-well plate (12.5 uL sample) and processed for quantification by mass spectrometry.

Series [3] has as its target T1, human CaV1.2 (Homo sapiens, UniProt Q13936).
T1 construct: expressed in transfected cells; host or cells: Flp-In 293 T-Rex (HEK293), monoclonal CaV1.2-HEK293(AUX) clone 2-19B; doxycycline-induced auxiliary subunits
Description: QPatch channel biophysics assay (channel gating, V1/2 of activation, inactivation) in CaV1.2-HEK293(AUX) cells. The format is cell-based. The conditions noted are these: Table 10 comparative examples. The text has this: (§1) The monoclonal CaV1.2-HEK293(AUX) cell line constitutively expresses human CaV1.2 alpha1C (α1C) subunit (CACNA1C) and has doxycycline-inducible expression of the alpha2delta (α2Δ2) auxiliary subunit (CACNA2D2) and beta2 (02) auxiliary subunit (CACNB2). To generate the cell line, expression vectors pcDNA5.0/FRT-TO-CACNA2D2-FCS-P2A-CACNB2 and pCMV6-entry-CACNA1C were established via gene synthesis and cloning. Here, pcDNA5.0/FRT-TO plasmid is from Invitrogen, pCMV6-entry is from Origene, FCS stands for Furin Cleavage Site, P2A is a peptide self-cleavage sequence derived from porcine teschovirus-1, and FRT is the Flippase recognition target site. Next, parental line Flp-In™ 293 T-Rex (Invitrogen) was transfected with pcDNA5.0/FRT-TO-CACNA2D2-FCS-P2A-CACNB2 and Flippase vector pOG44 (Invitrogen) to establish targeted integration of the CACNA2D2-FCS-P2A-CACNB2 expression cassette into the pre-engineered FRT site in Flp-In™ 293 T-Rex. This intermediate cell line was then transfected with pCMV6-entry-CACNA1C to establish stable CACNA1C expression. Clonal isolation was achieved under Neomycin selection. A cell clone (2-19B) with good voltage-dependent Barium current (see electrophysiology methods below) was selected for characterization of CaV1.2 activators.
(§2) 24 hours prior an electrophysiology experiment, doxycycline (1 μg/ml) was added to the growth medium (Table 6), and 25 μM of verapamil was co-applied to prevent calcium influx triggered cell death. Cell confluency should reach 70%-80% right before the experiment. To harvest cells (from a T175 cm^2 flask as an example), growth media were removed completely, and the cells were rinsed with 10 mL of D-PBS. D-PBS was aspirated, and 10 mL of Detachin (Genlantis) was added and the plate was placed in a 37° C. incubator for 10 minutes. Detached cells were placed into a 15 mL conical tube and spun at 1000 rpm for 2 minutes. Supernatant was removed, and cells were re-suspended in QPatch complete media (Table 7) to desired cell density of 1.5-3 million cells per QPatch run. Each experimental run uses 1.5 mL of cells.
The cells suspension was taken to the Sophion QPatch platform that uses whole-cell voltage clamp to measure barium currents conducted through CaV1.2 on single-hole QPlates. Extracellular and intracellular patch clamp solutions are described in Tables 7 and 8, respectively. A dose-response assay protocol was used to determine the maximal fold change of peak inward current (Emax) and potency (EC50) of each compound. The protocol had eight liquid periods. The first liquid period was to stabilize current amplitude, which was monitored using repetitive 200-ms voltage pulses stepping from −80 mV to 0 mV. The second liquid period was to determine baseline current amplitude in the presence of vehicle control, using a single 20-ms voltage pulse stepping from −80 mV to 0 mV. The third through eighth liquid periods were used to ascertain a 6-dose response to compound treatments, also using single 20-ms voltage pulses stepping from −80 mV to 0 mV. The EC50 was generated using the following equation Iconcentration=Ibase+(Ifull−Ibase)*c^n/(XC50^n+c^n), where c is the concentration and n is the Hill coefficient constant. Ifull is the maximal current achievable, and Ibase is 0. A channel biophysics assay protocol was used to determine channel gating properties including current-voltage relationship (IV curves), half-way channel activation voltage (V1/2), rate of channel inactivation (tau), and amplitude of tail current. Among these, V1/2 was derived from fitting equation G(V)=Gvmin+(Gvmax−Gvmin)/(1+exp(−(V−V½)/Vslope)), where G stands for conductance, Gvmin equals 0, Gvmax is the maximal conductance, and Vslope is a slope factor. G(V) was pre-calculated from equation G(V)=I(V)/(V−0.06), for each experimentally applied depolarization potential (V) and the corresponding current amplitude (I(V)), and 0.06 in the equation was the experimentally determined reversal potential in volts. […]
For orientation: Patch clamp records ionic current or voltage across a cell membrane.

Series [4] deals with T1, human CaV1.2. In words: Sophion QPatch dose-response assay, whole-cell voltage clamp of barium currents in CaV1.2-HEK293(AUX) cells. The format is cell-based. The following applies: Table 10 comparative examples; maximal fold change of peak inward current.
Excerpt: as §1, with “selection.” for “selection. A cell clone (2-19B) with good voltage-dependent Barium current (see electrophysiology methods below) was selected for characterization of CaV1.2 activators.”
Electrophysiological Characterization of CaV1.2 Activators Using CaV1.2-HEK293(AUX) Cell Line and QPatch
as §2
The cells suspension was taken to the Sophion QPatch platform that uses whole-cell voltage clamp to measure barium currents conducted through CaV1.2 on single-hole QPlates. Extracellular and intracellular patch clamp solutions are described in Tables 7 and 8, respectively. A dose-response assay protocol was used to determine the maximal fold change of peak inward current (Emax) and potency (EC50) of each compound. The protocol had eight liquid periods. The first liquid period was to stabilize current amplitude, which was monitored using repetitive 200-ms voltage pulses stepping from −80 mV to 0 mV. The second liquid period was to determine baseline current amplitude in the presence of vehicle control, using a single 20-ms voltage pulse stepping from −80 mV to 0 mV. The third through eighth liquid periods were used to ascertain a 6-dose response to compound treatments, also using single 20-ms voltage pulses stepping from −80 mV to 0 mV. The EC50 was generated using the following equation Iconcentration=Ibase+(Ifull−Ibase)*c^n/(XC50^n+c^n), where c is the concentration and n is the Hill coefficient constant. Ifull is the maximal current achievable, and Ibase is 0. A channel biophysics assay protocol was used to determine channel gating properties including current-voltage relationship (IV curves), half-way channel activation voltage (V1/2), rate of channel inactivation (tau), and amplitude of tail current. Among these, V1/2 was derived from fitting equation G(V)=Gvmin+(Gvmax−Gvmin)/(1+exp(−(V−V½)/Vslope)), where G stands for conductance, Gvmin equals 0, Gvmax is the maximal conductance, and Vslope is a slope factor. G(V) was pre-calculated from equation G(V)=I(V)/(V−0.06), for each experimentally applied depolarization potential (V) and the corresponding current amplitude (I(V)), and 0.06 in the equation was the experimentally determined reversal potential in volts. The protocol had four liquid periods.

T1 sequence (Q13936 1-2138 isoform Q13936-23): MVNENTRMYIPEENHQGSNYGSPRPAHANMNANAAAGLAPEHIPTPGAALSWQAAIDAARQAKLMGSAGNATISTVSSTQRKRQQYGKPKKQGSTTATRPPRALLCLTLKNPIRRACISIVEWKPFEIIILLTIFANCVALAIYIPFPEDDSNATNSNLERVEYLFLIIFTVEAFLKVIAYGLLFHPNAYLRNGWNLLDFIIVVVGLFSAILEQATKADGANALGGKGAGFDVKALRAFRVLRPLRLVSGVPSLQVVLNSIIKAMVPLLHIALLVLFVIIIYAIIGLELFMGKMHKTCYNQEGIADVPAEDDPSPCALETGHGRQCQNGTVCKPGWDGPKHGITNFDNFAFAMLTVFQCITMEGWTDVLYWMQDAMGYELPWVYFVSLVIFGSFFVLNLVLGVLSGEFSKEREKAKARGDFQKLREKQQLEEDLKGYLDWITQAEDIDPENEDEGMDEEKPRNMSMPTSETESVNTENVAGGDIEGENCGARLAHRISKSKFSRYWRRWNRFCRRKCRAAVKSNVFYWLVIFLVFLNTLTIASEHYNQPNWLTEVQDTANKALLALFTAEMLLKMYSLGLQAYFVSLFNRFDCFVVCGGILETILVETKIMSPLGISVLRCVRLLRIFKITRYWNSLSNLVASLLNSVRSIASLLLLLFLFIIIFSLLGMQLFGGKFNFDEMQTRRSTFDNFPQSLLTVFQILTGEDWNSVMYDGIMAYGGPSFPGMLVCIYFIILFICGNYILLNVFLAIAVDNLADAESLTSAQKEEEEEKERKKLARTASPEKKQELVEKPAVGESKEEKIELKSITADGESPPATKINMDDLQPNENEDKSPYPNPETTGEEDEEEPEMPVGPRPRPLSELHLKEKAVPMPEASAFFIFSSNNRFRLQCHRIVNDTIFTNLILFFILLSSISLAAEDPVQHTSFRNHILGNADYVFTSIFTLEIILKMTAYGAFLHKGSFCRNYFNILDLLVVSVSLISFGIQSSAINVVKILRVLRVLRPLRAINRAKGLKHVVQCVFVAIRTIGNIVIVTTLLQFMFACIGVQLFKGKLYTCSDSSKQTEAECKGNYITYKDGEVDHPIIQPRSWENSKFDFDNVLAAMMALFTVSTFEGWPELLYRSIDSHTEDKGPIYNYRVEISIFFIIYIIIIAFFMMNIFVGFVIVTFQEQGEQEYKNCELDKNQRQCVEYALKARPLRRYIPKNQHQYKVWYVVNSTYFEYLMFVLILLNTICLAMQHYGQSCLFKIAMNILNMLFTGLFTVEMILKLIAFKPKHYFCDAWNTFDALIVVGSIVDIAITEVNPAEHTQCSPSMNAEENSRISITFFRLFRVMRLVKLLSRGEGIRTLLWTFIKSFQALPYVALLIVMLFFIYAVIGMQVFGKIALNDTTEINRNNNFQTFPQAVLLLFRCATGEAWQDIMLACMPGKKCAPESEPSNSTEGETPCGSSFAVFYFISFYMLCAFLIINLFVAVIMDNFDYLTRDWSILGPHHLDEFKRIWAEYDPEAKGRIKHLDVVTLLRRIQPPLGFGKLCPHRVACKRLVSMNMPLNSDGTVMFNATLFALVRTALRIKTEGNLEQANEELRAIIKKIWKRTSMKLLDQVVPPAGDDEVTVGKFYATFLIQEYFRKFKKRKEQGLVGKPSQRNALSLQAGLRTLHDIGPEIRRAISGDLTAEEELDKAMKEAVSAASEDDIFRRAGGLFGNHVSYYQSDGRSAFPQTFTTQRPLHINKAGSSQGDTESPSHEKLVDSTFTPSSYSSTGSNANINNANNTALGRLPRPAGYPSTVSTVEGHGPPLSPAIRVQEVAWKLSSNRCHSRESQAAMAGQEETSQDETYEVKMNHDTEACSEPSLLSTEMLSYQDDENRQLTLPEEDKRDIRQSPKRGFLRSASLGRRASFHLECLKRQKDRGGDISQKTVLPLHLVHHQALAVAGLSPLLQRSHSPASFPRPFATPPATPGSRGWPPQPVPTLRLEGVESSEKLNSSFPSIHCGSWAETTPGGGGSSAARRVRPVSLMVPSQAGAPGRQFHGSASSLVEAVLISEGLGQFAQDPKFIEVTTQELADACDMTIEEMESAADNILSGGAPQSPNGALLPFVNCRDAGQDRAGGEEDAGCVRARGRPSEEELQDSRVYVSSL
T1 sequence (Q9NY47 19-1001 partner limits assumed): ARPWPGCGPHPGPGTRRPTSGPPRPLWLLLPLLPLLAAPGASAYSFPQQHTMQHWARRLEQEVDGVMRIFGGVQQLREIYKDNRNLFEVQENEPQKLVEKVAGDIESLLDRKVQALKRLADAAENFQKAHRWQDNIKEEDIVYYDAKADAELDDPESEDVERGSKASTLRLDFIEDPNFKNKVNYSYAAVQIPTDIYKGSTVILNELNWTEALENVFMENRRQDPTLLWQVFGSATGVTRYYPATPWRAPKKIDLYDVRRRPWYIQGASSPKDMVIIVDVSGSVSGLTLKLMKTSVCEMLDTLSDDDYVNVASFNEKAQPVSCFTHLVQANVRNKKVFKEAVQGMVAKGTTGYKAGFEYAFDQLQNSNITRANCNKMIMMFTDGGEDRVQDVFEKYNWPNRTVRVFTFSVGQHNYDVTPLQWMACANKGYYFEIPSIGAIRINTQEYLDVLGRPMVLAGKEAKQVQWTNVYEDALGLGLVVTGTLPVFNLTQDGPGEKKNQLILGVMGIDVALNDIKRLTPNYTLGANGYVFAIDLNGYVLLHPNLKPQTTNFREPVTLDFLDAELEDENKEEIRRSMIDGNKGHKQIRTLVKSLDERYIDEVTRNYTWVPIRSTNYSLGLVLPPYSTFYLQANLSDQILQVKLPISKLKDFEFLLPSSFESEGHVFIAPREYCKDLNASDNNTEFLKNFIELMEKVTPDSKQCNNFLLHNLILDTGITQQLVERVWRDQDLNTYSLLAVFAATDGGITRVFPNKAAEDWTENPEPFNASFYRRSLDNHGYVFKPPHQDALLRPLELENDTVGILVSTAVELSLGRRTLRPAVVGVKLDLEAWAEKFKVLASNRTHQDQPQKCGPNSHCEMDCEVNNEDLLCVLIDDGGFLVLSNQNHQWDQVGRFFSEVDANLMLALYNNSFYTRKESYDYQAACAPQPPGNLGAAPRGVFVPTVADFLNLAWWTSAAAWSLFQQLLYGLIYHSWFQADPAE
T1 sequence (Q9NY47 1002-1150 partner limits assumed): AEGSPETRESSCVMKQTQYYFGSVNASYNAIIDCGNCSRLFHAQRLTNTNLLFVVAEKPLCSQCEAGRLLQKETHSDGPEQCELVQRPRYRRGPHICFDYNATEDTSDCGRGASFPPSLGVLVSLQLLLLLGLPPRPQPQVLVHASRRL
T1 sequence (Q08289 whole entry partner): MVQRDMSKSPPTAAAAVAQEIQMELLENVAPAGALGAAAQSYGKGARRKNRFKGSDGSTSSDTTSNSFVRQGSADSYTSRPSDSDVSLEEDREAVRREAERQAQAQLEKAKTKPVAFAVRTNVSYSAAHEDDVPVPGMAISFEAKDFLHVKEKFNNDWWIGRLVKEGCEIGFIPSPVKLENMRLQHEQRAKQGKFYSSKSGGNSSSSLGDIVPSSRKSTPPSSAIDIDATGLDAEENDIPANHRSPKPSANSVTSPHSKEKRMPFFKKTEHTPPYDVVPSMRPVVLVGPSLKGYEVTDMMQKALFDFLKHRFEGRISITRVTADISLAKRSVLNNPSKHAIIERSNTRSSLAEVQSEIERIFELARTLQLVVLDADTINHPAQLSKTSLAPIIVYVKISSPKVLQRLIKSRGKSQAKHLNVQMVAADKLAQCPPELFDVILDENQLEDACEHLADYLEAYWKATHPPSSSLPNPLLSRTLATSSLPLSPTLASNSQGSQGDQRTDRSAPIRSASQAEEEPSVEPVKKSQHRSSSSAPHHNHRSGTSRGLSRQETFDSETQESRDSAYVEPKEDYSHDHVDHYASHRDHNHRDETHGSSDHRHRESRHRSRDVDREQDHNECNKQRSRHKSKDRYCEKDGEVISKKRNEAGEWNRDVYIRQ

`COC(=O)C1=C(CF)NC2=C(C(=O)OC2)[C@H]1c1cccc(F)c1[C@@H](C)F` [Hydrate B, methyl (R)-4-(3-fluoro-2-((R)-1-fluoroethyl)phenyl)-2-(fluoromethyl)-5-oxo-1,4,5,7-tetrahydrofuro[3,4-b]pyridine-3-carboxylate]: in series [1] (25° C.), the “water uptake upon subsequent increase of the relative humidity” value is recorded as “about 3%”. In series [1] (starts below 20% RH, until 0% RH), the “loss of water on dehydration” value was “about 4.4%”.

`COC(=O)C1=C(CF)NC2=C(C(=O)OC2)[C@H]1c1cccc(F)c1[C@@H](C)F` [Hydrate A, methyl (R)-4-(3-fluoro-2-((R)-1-fluoroethyl)phenyl)-2-(fluoromethyl)-5-oxo-1,4,5,7-tetrahydrofuro[3,4-b]pyridine-3-carboxylate]: the hygroscopicity result in series [1] is recorded as “slightly hygroscopic”. In series [1] (between 10% to 95% RH at 25° C.), the water uptake entry is “about 0.2%”.

Consider `CCOC(=O)C1=C(C)NC2=C(C(=O)OC2)[C@H]1c1ccccc1OC(F)F` (single isomer, unassigned) [CGP028392, reference compound], for which the Kp at 1 h in series [2] worked out at 0.23. In addition, the “Biophysics voltage shift (mV)” value at human CaV1.2 [3] is −6.7 mV. For the same molecule, the “Qpatch Emax” value at human CaV1.2 [4] is on record as 2.2.

(Values after US20250304594A1, “METHYL (R)-2-(FLUOROMETHYL)-5-OXO-4-PHENYL-4,5,6,7-TETRAHYDRO-1H-CYCLOPENTA[B]PYRIDINE-3-CARBOXYLATE AND METHYL (R)-2-(FLUOROMETHYL)-5-OXO-4-PHENYL-1,4,5,7-TETRAHYDROFURO[3,4-B]PYRIDINE-3-CARBOXYLATE AS Cav1,2 ACTIVATORS” (Novartis AG, priority 2020, published 2025).)
